Experimental data reported in patent EP4714948A1, “COMPOUND USED FOR EGFR PROTEIN DEGRADATION, AND USE THEREOF” (TYK Medicines, Inc., priority 2023, dated 2024).

Experiments:
[1] = biological target: EGFR in BAF3-LTC (Baf3-L858R-T780M-C797S) (Homo sapiens, UniProt P00533, C797S/L858R/T790M); assay: EGFR PROTAC HTRF experiment (total EGFR degradation); assay type: cell-based; details: BAF3-LTC cells, 16 hours incubation
[2] = biological target: EGFR in BAF3-DTC (Baf3-19del-T780M-C797S) (Homo sapiens, UniProt P00533, C797S/DEL746-750/T790M); assay: as above; assay type: cell-based; details: BAF3-DTC cells, 16 hours incubation
Sequence of EGFR in BAF3-DTC (Baf3-19del-T780M-C797S) (P00533 with tags, fused parts or gaps DEL746-750/T790M/C797S): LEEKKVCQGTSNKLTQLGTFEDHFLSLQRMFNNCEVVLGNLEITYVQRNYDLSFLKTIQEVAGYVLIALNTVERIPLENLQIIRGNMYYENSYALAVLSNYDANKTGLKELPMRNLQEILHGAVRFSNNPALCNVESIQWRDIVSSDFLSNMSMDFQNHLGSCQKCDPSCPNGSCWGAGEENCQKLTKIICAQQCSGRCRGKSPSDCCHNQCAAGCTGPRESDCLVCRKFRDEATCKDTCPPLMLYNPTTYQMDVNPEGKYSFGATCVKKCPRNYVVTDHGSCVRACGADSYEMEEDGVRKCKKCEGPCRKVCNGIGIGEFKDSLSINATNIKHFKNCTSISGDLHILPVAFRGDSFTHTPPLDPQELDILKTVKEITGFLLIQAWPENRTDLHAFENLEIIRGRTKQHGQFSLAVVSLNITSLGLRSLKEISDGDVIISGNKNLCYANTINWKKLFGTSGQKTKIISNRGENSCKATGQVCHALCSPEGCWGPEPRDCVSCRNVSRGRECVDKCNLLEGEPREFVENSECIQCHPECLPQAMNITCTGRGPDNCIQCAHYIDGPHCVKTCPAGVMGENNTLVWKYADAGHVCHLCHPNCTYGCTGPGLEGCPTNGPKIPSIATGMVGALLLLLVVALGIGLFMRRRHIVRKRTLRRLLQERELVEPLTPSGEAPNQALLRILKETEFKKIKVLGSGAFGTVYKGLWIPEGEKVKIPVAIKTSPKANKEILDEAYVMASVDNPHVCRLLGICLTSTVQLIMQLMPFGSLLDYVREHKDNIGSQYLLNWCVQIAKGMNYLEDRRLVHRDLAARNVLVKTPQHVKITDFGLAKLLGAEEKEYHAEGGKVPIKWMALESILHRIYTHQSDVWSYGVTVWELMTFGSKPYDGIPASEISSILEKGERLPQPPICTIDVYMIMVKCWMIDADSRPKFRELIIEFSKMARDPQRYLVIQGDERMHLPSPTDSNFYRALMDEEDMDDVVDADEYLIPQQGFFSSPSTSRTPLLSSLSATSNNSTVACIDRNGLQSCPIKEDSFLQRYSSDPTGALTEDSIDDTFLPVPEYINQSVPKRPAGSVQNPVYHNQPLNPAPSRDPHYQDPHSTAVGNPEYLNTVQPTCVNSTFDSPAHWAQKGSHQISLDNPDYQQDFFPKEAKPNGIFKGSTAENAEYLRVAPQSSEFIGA

[3] = Pharmacokinetic test on male SD rats; assay type: in vivo; details: gavage (p.o.), 10 mg/kg, plasma; for AUC(0-inf) / AUC(0-t) / Cmax / MRT last / Tmax: rat, po
Experimental: Healthy adult SD rats, male, a total of 3, 6-8 weeks old; Weighing 200-300 grams.
EDTA-Na2 anticoagulant: 11.2 g of EDTA-Na2 was weighted and placed into a reagent bottle. 100 mL of physiological saline was added and the mixture was shaken until completely dissolved. After preparation, the solution was aliquoted into 1.5 mL centrifuge tubes, each containing approximately 20 uL, for use in whole blood sample collection.
Approximately 10 mg of the test sample was accurately weighed. DMSO accounting for 10% of the total volume was added to dissolve the sample. Subsequently, 0.5% MC solvent accounting for 90% of the total volume was slowly added while stirring. The mixture was sonicated and vortexed evenly, and a visually homogeneous preparation solution was obtained, with a concentration of 1 mg/mL. This solution should be freshly prepared immediately before use.
0.2 mL of the sample was pipetted into a 1.5 mL centrifuge tube and stored at -80°C for concentration analysis of the dosing solution.
Animals were kept in rat cages and fasted for no less than 10 hours on the day before the experiment, but were allowed to drink water. The animals were individually weighed and marked on their tails. Prior to dosing, blank blood samples were collected from each animal via the tail vein.
• Administration route: gavage (p.o.) • Dosage concentration: 1mg/ml • Dosage: 10 mg/kg • Dosage volume: 10 mL/kg
Operation process: The rat was grasped with a left hand protected by a bite-resistant glove and held in an upright position. The gavage needle was inserted through the mouth and advanced towards the pharynx. The needle was advanced gently, ensuring no significant resistance was felt. The drug was then injected into the stomach.
At 0.5 h, 1 h, 2 h, 4 h, 6 h, 8 h, 12 h, and 24 h post-dosing, 0.1-0.2 mL of whole blood was collected from each test animal into EDTA-Na2 anticoagulant tubes. The tubes were mixed by inverting 3-4 times. The samples were centrifuged at 2000 × g and 4 °C for 5 minutes. The upper plasma layer was to separated, promptly transferred to -80 °C for storage until analysis. The blood was collected via tail vein.
A quantitative detection method for the test compound was established using a Shimadzu liquid chromatography system and a Triple Quad™ 6500+ AB mass spectrometry (MS) system. This method was used to analyze the concentration of the parent drug in plasma. The variation of the analysis results was controlled using quality control (QC) samples, and the accuracy of the QC samples was required to be within the range of 80%-120%.
The main pharmacokinetic parameters were calculated using the non-compartmental model (NCA) with the WinNonlin Phoenix software. These parameters include: area under the concentration-time curve (AUC(0-t) and AUC(0-∞)), elimination half-life (T1/2), maximum plasma concentration (Cmax), and time to reach maximum plasma concentration (Tmax), etc.

[4] = test system: H1975; assay: Cell antiproliferative assay (CTG, 72 h); assay type: cell-based; details: Homo sapiens, NCI-H1975, H1975 (EGFR T790M/L858R)
Experimental: (§1) H1975 has EGFR T790M/L858R dual mutation, PC-9 has EGFR exon 19 deletion mutation, and HCC827 has exon 19 deletion mutation. CellCounting Lite 2.0, Trypsin EDTA, 37 °C CO2 incubator, cell counter, EnVision Serial No.1050454.
(§2) • (A) Trypsin EDTA was used to digest log-phase cells, medium was added to terminate the digestion reaction, and a cell suspension was prepared by blowing and mixing with a pipette. • (B) Cell concentration was determined using Vi-cell, and a suspension of 15,000-25,000 cells per milliliter was made depending on the purpose of the experiment and the characteristics of the cells. • (C) After the cell suspension was ready, it was gently mixed and each well was added with 100µL so that the cell density to be tested was 1,500- 2,500 per well.
(§3) • A) About 2 mg of compound was weighed, and the volume of DMSO required was calculated according to the formula: compound mass (mg)*compound purity (%)/compound molecular weight*1000. • (B) The inoculated cell culture plates were incubated in an incubator. About 24 hours later, compounds were added at gradient concentrations. • (C) 10mM of compound reservoir solution was diluted to […] with medium, and […] of the compound solution was added sequentially to the second column of the deep-well plate, and […] of medium containing 0.5% DMSO was added to the third to eleventh columns. • D) Gradient dilution: 125 µl of solution was pipetted from the second column and added to the third column, after mixing; another 125 µl of solution was pipetted from the third column and added to the fourth column, and the operation was repeated until the tenth column. • (E) 25 µl of compound was pipetted from the deep-well plate into a 96-well culture plate using a multichannel pipette, and each compound was run in triplicate on the 96-well plate. A 1:4 concentration gradient was established on the 96-well plate, with a final highest concentration of 10,000 nM.
(§4) • (A) 96-well plates were incubated in an incubator for 72 h. The effect of the compounds was observed under an inverted microscope. • (B) 25 µl of CTG solution was added to each well. The plate was incubated on a shaker for 10 minutes and the OD value of each well was read.
(§5) The survival rate ( % Cell Viability) was calculated using the following formula: %Cell Viability = 100% × (Lum_Sample−Lum_LC)/(Lum_HC−Lum_LC) [formula] • Lum_HC: Cell reading of 0.1% DMSO control group • Lum_Sample: Cell readings of compound addition group • Lum_LC: Reading of blank medium • IC50 values were obtained by curve fitting using GraphPad Prism 8 software.

[5] = test system: HCC827; assay: Cell antiproliferative assay (CTG, 72 h); assay type: cell-based; details: Homo sapiens, HCC827 (exon 19 deletion)
Experimental: as §1, §2, §3, §4, §5

[6] = test system: PC-9; assay: Cell antiproliferative assay (CTG, 72 h); assay type: cell-based; details: Homo sapiens, PC-9 (EGFR exon 19 deletion)
Experimental: as §1, §2, §3, §4, §5

Sequence of EGFR in BAF3-LTC (Baf3-L858R-T780M-C797S) (P00533 25-1210 T790M/C797S/L858R): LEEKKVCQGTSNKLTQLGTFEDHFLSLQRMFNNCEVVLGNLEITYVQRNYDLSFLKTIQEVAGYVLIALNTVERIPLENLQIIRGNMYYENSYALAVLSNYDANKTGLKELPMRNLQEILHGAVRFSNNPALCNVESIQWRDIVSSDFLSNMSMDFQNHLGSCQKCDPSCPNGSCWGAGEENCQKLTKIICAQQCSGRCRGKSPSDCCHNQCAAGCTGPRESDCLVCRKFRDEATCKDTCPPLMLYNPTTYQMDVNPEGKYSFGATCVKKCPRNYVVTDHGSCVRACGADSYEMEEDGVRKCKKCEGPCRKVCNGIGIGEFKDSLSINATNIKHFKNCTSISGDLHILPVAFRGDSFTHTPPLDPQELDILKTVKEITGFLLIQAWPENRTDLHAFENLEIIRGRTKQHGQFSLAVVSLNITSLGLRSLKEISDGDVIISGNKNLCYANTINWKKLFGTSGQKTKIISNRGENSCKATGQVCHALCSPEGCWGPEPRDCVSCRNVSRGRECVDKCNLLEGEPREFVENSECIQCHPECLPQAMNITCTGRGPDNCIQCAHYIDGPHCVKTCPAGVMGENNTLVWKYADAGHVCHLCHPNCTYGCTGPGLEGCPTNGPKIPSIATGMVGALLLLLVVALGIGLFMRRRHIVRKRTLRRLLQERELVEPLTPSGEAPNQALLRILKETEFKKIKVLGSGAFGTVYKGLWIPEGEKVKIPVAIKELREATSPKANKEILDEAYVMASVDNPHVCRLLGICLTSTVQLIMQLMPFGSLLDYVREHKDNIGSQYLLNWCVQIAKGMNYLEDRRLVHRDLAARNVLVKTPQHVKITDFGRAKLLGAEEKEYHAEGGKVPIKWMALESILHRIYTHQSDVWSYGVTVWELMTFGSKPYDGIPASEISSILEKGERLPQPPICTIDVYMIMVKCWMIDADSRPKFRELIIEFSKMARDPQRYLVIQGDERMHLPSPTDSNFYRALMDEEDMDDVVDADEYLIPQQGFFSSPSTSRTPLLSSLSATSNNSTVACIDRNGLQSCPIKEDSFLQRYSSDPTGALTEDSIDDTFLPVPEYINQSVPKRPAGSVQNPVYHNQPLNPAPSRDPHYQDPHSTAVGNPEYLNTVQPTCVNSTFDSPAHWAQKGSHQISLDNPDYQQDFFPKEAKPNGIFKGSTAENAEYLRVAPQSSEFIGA

| Structure (SMILES) | DC50 [1] [nM] | Dmax [1] [%] | DC50 [2] [nM] | Dmax [2] [%] | HL_ [3] [h] | AUC(0-inf) [3] [ng·h/mL] | AUC(0-t) [3] [ng·h/mL] | Cmax [3] [ng/mL] | MRT last [3] [h] | Tmax [3] [h] | IC50 [4] [nM] | IC50 [5] [nM] | IC50 [6] [nM] |
| --- | --- | --- | --- | --- | --- | --- | --- | --- | --- | --- | --- | --- | --- |
| CCc1cc(Nc2ncc(Cl)c(Nc3ccccc3C(=O)NC)n2)c(OC)cc1N1CCN(C(=O)CN2CCC(c3ccc(NC4CCC(=O)NC4=O)cc3C)CC2)CC1 (stereo not shown) [Compound T-090] | 10 to 100 | 70 to 100 | 100 to 1000 | 70 to 100 |  |  |  |  |  |  |  |  |  |
| CCc1cc(Nc2ncc(Cl)c(Nc3ccccc3C(=O)NC)n2)c(OC)cc1N1CCN(C(=O)CN2CCC(c3ccc(NC4CCC(=O)NC4=O)cc3C(F)(F)F)CC2)CC1 (stereo not shown) [Compound T-074] |  |  |  |  | 7.97 | 20200 | 16900 | 1120 | 9.66 | 5.33 |  |  |  |
| CNC(=O)c1ccccc1Nc1nc(Nc2cc(C)c(N3CCN(C(=O)CC4(O)CCN(c5ccc6c(N7CCC(=O)NC7=O)nn(C)c6c5)CC4)CC3)cc2OC)ncc1Cl [Compound T-086] |  |  |  |  |  |  |  |  |  |  | 100 to 1000 | 100 to 1000 | 100 to 1000 |
| CNC(=O)c1ccccc1Nc1nc(Nc2cc(C)c(N3CCN(C(=O)CN4CCC(c5ccc6c(N7CCC(=O)NC7=O)nn(C)c6c5)C(F)(F)C4)CC3)cc2OC)ncc1Cl (stereo not shown) [Compound T-049] |  |  |  |  |  |  |  |  |  |  | < 10 | 10 to 100 | 100 to 1000 |
| CCc1cc(Nc2ncc(Br)c(Nc3ccccc3C(=O)NC)n2)c(OC)cc1N1CCN(C(=O)CN2CCC(c3ccc4c(N5CCC(=O)NC5=O)nn(C)c4c3)C(F)(F)C2)CC1 (stereo not shown) [Compound T-014] | ≤ 10 | 70 to 100 | ≤ 10 | 70 to 100 | 3.37 | 4560 | 4510 | 721 | 5.88 | 3.33 |  |  |  |
| CCc1cc(Nc2ncc(Cl)c(Nc3ccccc3C(=O)NC)n2)c(OC)cc1N1CC2(CN(C(=O)CN3CCC(c4ccc(NC5CCC(=O)NC5=O)cc4)CC3)C2)C1 (stereo not shown) [Compound T-080] | 10 to 100 | 70 to 100 | 10 to 100 | 70 to 100 |  |  |  |  |  |  | < 10 | 10 to 100 | 10 to 100 |
| CCc1cc(Nc2ncc(Cl)c(Nc3ccccc3C(=O)NC)n2)c(OC)cc1N1CCN(C(=O)CN2CCN(c3ccc4c(N5CCC(=O)NC5=O)nn(C)c4c3)CC2)CC1 [Compound T-045] |  |  |  |  |  |  |  |  |  |  | 100 to 1000 | 100 to 1000 | 100 to 1000 |
| C=Cc1cc(Nc2ncc(Cl)c(Nc3ccccc3C(=O)NC)n2)c(OC)cc1N1CCN(C(=O)CN2CCC(c3ccc(NC4CCC(=O)NC4=O)cc3)CC2)CC1 (stereo not shown) [Compound T-003] | 10 to 100 | 70 to 100 | 10 to 100 | 70 to 100 |  |  |  |  |  |  | 10 to 100 | 10 to 100 | 100 to 1000 |
| CNC(=O)c1ccccc1Nc1nc(Nc2ccc(N3CCN(C(=O)CN4CCC(c5ccc6c(N7CCC(=O)NC7=O)nn(C)c6c5)C(F)(F)C4)CC3)cc2OC)ncc1Cl (stereo not shown) [Compound T-047] |  |  |  |  |  |  |  |  |  |  | 10 to 100 | 100 to 1000 | 100 to 1000 |
